Results as given in US9302999B2, “Substituted triazoles as herbicides” (E. I. DU PONT DE NEMOURS AND COMPANY, priority 2012, dated 2016).
Read-outs that look alike come from different tables or passages of the source.

How the values were obtained:
Format in all cases: in vivo
[1] = test system: blackgrass (Alopecurus myosuroides); assay: Test C pre-/postemergence: blackgrass
Procedure, shortened: (§1)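 Visual injury scored 0–100 (100 = complete control) against untreated controls after 13–15 greenhouse days. Surfactant-containing solvent formulations applied either to soil after sowing (loam/sand) or over 1- to 4-leaf plants, 2–18 cm tall.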

[2] = test system: velvetleaf (Abutilon theophrasti); assay: Test A pre-/postemergence: velvetleaf; conditions: for pest or weed control at 125 g/ha / pest or weed control at 500 g/ha: Abutilon theophrasti, 240 h
Procedure, shortened: (§2)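 Whole-plant greenhouse assay in loam/sand. Preemergence directed soil spray plus simultaneous postemergence spray (one- to two-leaf stage, 2–10 cm). Rated visually ~10 days later, 0 = no effect, 100 = complete control.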

[3] = test system: chickweed (common chickweed, Stellaria media); assay: Test C postemergence: chickweed
Procedure, shortened: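 Plants at the 1- to 4-leaf stage (2 to 18 cm tall), grown in pots of peat moss/vermiculite planting medium, received postemergence applications of the formulated test chemicals. After 13 to 15 days in a greenhouse, injury was scored visually versus controls from 0 (no effect) to 100 (complete control).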

[4] = test system: johnsongrass (Sorghum halepense); assay: Test C pre-/postemergence: johnsongrass
Procedure, shortened: as §1

[5] = test system: wild oat (Avena fatua); assay: Test C pre-/postemergence: wild oat; conditions: Postemergence
Procedure, shortened: as §1

[6] = test system: pigweed (Amaranthus retroflexus); assay: Test C pre-/postemergence: pigweed
Procedure, shortened: as §1

[7] = test system: winter wheat (Triticum aestivum); assay: Test C pre-/postemergence: winter wheat
Procedure, shortened: as §1

[8] = test system: rice (Oryza sativa); assay: Test B flooded paddy: rice; conditions: Flood, applied to paddy water at 2-leaf stage, visually evaluated after 13 to 15 days
Procedure, shortened: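 2-leaf plants; pots flooded 3 cm over soil; compound added to paddy water, depth kept constant. Greenhouse 13–15 d. Visual rating vs controls, 0–100 scale (100 = complete control); dash = no result.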

[9] = test system: corn (Zea mays); assay: Test A pre-/postemergence: corn
Procedure, shortened: as §2

[10] = test system: barnyardgrass (Echinochloa crus-galli); assay: Test A pre-/postemergence: barnyardgrass; conditions: for pest or weed control at 125 g/ha / pest or weed control at 500 g/ha: Echinochloa crus-galli, 240 h
Procedure, shortened: as §2

[11] = Postemergence, 31 g ai/ha, scale 0 to 100 (0 no effect, 100 complete control)
[12] = Postemergence, 62 g ai/ha, scale 0 to 100 (0 no effect, 100 complete control)
[13] = Postemergence, 125 g ai/ha, scale 0 to 100, 0 no effect, 100 complete control
[14] = Postemergence, 250 g ai/ha, scale 0 to 100
[15] = Preemergence, 31 g ai/ha, scale 0 (no effect) to 100 (complete control)
[16] = Preemergence, 62 g ai/ha, scale of 0 to 100, 0 is no effect, 100 is complete control
[17] = Preemergence, 125 g ai/ha, scale 0 to 100, 0 no effect, 100 complete control
[18] = Preemergence, 250 g ai/ha, scale 0 to 100, 0 no effect, 100 complete control
[19] = 31 g ai/ha, scale 0 to 100 (0 no effect, 100 complete control)
[20] = 62 g ai/ha, scale 0 to 100 (0 no effect, 100 complete control)
[21] = 125 g ai/ha, scale 0 to 100, 0 no effect, 100 complete control
[22] = Postemergence, 125 g ai/ha, 0 to 100 scale, 0 is no effect, 100 is complete control
[23] = Postemergence, 500 g ai/ha, 0 to 100 scale, 0 is no effect, 100 is complete control
[24] = Preemergence, 125 g ai/ha, 0 to 100 scale where 0 is no effect and 100 is complete control
[25] = Preemergence, 500 g ai/ha, 0 to 100 scale (0 no effect, 100 complete control)
[26] = Postemergence, 250 g ai/ha, scale 0 to 100 (0 no effect, 100 complete control)

## CCOc1nn(-c2ccc(C(F)(F)F)cc2)nc1Cc1ccnc(C(F)(F)F)c1 [Compound 164, 4-[[5-ethoxy-2-[4-(trifluoromethyl)phenyl]-2H-1,2,3-triazol-4-yl]methyl]-2-(trifluoromethyl)pyridine]
[1]; [11]
  Plant response rating, Blackgrass: 5
[1]; [12]
  Plant response rating, Blackgrass: 5
[1]; [13]
  Plant response rating, Blackgrass: 15
[1]; [14]
  Plant response rating, Blackgrass: 15
[1]; [15]
  Plant response rating, Blackgrass: 5
[1]; [16]
  Plant response rating, Blackgrass: 10
[1]; [17]
  Plant response rating, Blackgrass: 60
[1]; [18]
  Plant response rating, Blackgrass: 70
[2]; post-emergence, Postemergence, 125 g ai/ha, 0 to 100 scale, 0 is no effect, 100 is complete control, read-out: Plant response rating, Velvetleaf
  pest or weed control at 125 g/ha: 100%
[2]; post-emergence, Postemergence, 500 g ai/ha, 0 to 100 scale, 0 is no effect, 100 is complete control, read-out: Velvetleaf plant response rating
  pest or weed control at 500 g/ha: 100%
[2]; pre-emergence, Preemergence, 125 g ai/ha, 0 to 100 scale where 0 is no effect and 100 is complete control, read-out: Plant response rating, Velvetleaf
  pest or weed control at 125 g/ha: 80%
[2]; pre-emergence, Preemergence, 500 g ai/ha, 0 to 100 scale (0 no effect, 100 complete control), read-out: Plant response rating, Velvetleaf
  pest or weed control at 500 g/ha: 100%
[3]; [19]
  Plant response rating, Chickweed: 10
[3]; [20]
  Plant response rating, Chickweed: 40
[3]; [21]
  Plant response rating, Chickweed: 45
[3]; 250 g ai/ha, scale 0 to 100
  Plant response rating, Chickweed: 45
[4]; [11]
  Plant response rating, Johnsongrass: 10
[4]; [12]
  Plant response rating, Johnsongrass: 10
[4]; [13]
  Plant response rating, Johnsongrass: 10
[4]; [14]
  Plant response rating, Johnsongrass: 10
[4]; [15]
  Plant response rating, Johnsongrass: 5
[4]; [16]
  Plant response rating, Johnsongrass: 15
[4]; [17]
  Plant response rating, Johnsongrass: 20
[4]; [18]
  Plant response rating, Johnsongrass: 40
[5]; [19]
  Plant response rating, Oat, Wild: 5
[5]; [20]
  Plant response rating, Oat, Wild: 5
[5]; [21]
  Plant response rating, Oat, Wild: 5
[5]; 250 g ai/ha, scale 0 to 100
  Plant response rating, Oat, Wild: 10
[6]; [11]
  Plant response rating, Pigweed: 50
[6]; [12]
  Plant response rating, Pigweed: 75
[6]; [13]
  Plant response rating, Pigweed: 80
[6]; [14]
  Plant response rating, Pigweed: 80
[6]; [15]
  Plant response rating, Pigweed: 10
[6]; [16]
  Plant response rating, Pigweed: 35
[6]; [17]
  Plant response rating, Pigweed: 90
[6]; [18]
  Plant response rating, Pigweed: 100
[7]; [11]
  Plant response rating, Wheat: 5
[7]; [12]
  Plant response rating, Wheat: 10
[7]; [13]
  Plant response rating, Wheat: 10
[7]; [14]
  Plant response rating, Wheat: 10
[7]; [15]
  Plant response rating, Wheat: 0
[7]; [16]
  Plant response rating, Wheat: 0
[7]; [17]
  Plant response rating, Wheat: 0
[7]; [18]
  Plant response rating, Wheat: 5
[8]; 125 g ai/ha
  Plant response rating, Rice (0 to 100 scale, 0 is no effect, 100 is complete control): 45
[9]; Zea mays, post-emergence, 240 h, Postemergence, 125 g ai/ha, 0 to 100 scale, 0 is no effect, 100 is complete control
  Corn plant response rating (crop injury, 0 = no effect, 100 = complete kill) at 125 g/ha: 30%
[9]; Zea mays, post-emergence, 240 h, Postemergence, 500 g ai/ha, 0 to 100 scale, 0 is no effect, 100 is complete control, read-out: Corn plant response rating
  plant injury at 500 g/ha: 40%
[9]; Zea mays, pre-emergence, 240 h, Preemergence, 125 g ai/ha, 0 to 100 scale where 0 is no effect and 100 is complete control
  Corn plant response rating (crop injury, 0 = no effect, 100 = complete kill) at 125 g/ha: 30%
[9]; Zea mays, pre-emergence, 240 h, Preemergence, 500 g ai/ha, 0 to 100 scale (0 no effect, 100 complete control)
  Corn plant response rating (crop injury, 0 = no effect, 100 = complete kill) at 500 g/ha: 30%
[10]; post-emergence, Postemergence, 125 g ai/ha, 0 to 100 scale, 0 is no effect, 100 is complete control, read-out: Plant response rating, Barnyardgrass
  pest or weed control at 125 g/ha: 90%
[10]; post-emergence, Postemergence, 500 g ai/ha, 0 to 100 scale, 0 is no effect, 100 is complete control, read-out: Barnyardgrass plant response rating
  pest or weed control at 500 g/ha: 90%
[10]; pre-emergence, Preemergence, 125 g ai/ha, 0 to 100 scale where 0 is no effect and 100 is complete control, read-out: Plant response rating, Barnyardgrass
  pest or weed control at 125 g/ha: 90%
[10]; pre-emergence, Preemergence, 500 g ai/ha, 0 to 100 scale (0 no effect, 100 complete control), read-out: Plant response rating, Barnyardgrass
  pest or weed control at 500 g/ha: 100%

## CCCc1nn(-c2ccc(F)cc2)nc1Oc1ccnc(C(F)(F)F)c1 [Compound 168]
[1]; [11]
  Plant response rating, Blackgrass: 45
[1]; [12]
  Plant response rating, Blackgrass: 45
[1]; [13]
  Plant response rating, Blackgrass: 80
[1]; [14]
  Plant response rating, Blackgrass: 80
[1]; [15]
  Plant response rating, Blackgrass: 90
[1]; [16]
  Plant response rating, Blackgrass: 90
[1]; [17]
  Plant response rating, Blackgrass: 95
[1]; [18]
  Plant response rating, Blackgrass: 98
[2]; [22]
  Plant response rating, Velvetleaf: 100
[2]; [23]
  Velvetleaf plant response rating: 100
[2]; [24]
  Plant response rating, Velvetleaf: 30
[2]; [25]
  Plant response rating, Velvetleaf: 90
[3]; [19]
  Plant response rating, Chickweed: 80
[3]; [20]
  Plant response rating, Chickweed: 80
[3]; [21]
  Plant response rating, Chickweed: 90
[3]; 250 g ai/ha, scale 0 to 100
  Plant response rating, Chickweed: 100
[4]; [11]
  Plant response rating, Johnsongrass: 30
[4]; [12]
  Plant response rating, Johnsongrass: 55
[4]; [13]
  Plant response rating, Johnsongrass: 70
[4]; [26]
  Plant response rating, Johnsongrass: 75
[4]; [15]
  Plant response rating, Johnsongrass: 75
[4]; [16]
  Plant response rating, Johnsongrass: 98
[4]; [17]
  Plant response rating, Johnsongrass: 100
[4]; [18]
  Plant response rating, Johnsongrass: 100
[5]; [19]
  Plant response rating, Oat, Wild: 30
[5]; [20]
  Plant response rating, Oat, Wild: 45
[5]; [21]
  Plant response rating, Oat, Wild: 50
[5]; 250 g ai/ha, scale 0 to 100 (0 no effect, 100 complete control)
  Plant response rating, Oat, Wild: 60
[6]; [11]
  Plant response rating, Pigweed: 80
[6]; [12]
  Plant response rating, Pigweed: 98
[6]; [13]
  Plant response rating, Pigweed: 98
[6]; [26]
  Plant response rating, Pigweed: 98
[6]; [15]
  Plant response rating, Pigweed: 100
[6]; [16]
  Plant response rating, Pigweed: 100
[6]; [17]
  Plant response rating, Pigweed: 100
[6]; [18]
  Plant response rating, Pigweed: 100
[7]; [11]
  Plant response rating, Wheat: 20
[7]; [12]
  Plant response rating, Wheat: 20
[7]; [13]
  Plant response rating, Wheat: 35
[7]; [26]
  Plant response rating, Wheat: 45
[7]; [15]
  Plant response rating, Wheat: 5
[7]; [16]
  Plant response rating, Wheat: 40
[7]; [17]
  Plant response rating, Wheat: 40
[7]; [18]
  Plant response rating, Wheat: 60
[8]; 250 g ai/ha
  Plant response rating, Rice (0 to 100 scale, 0 is no effect, 100 is complete control): 60
[9]; [22]
  Plant response rating, Corn: 20
[9]; [23]
  Corn plant response rating: 50
[9]; [24]
  Plant response rating, Corn: 20
[9]; [25]
  Plant response rating, Corn: 40
[10]; [22]
  Plant response rating, Barnyardgrass: 90
[10]; [23]
  Barnyardgrass plant response rating: 90
[10]; [24]
  Plant response rating, Barnyardgrass: 90
[10]; [25]
  Plant response rating, Barnyardgrass: 100
